“And” between values parts separate entries of the source, which are not always exact repeats. Equal entries are not always repeated.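 Test compounds were applied to cells in 96-well plates for 48 hours at 5 doses. At the GI50, growth is halved. TGI: concentration producing complete growth inhibition.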
Tests used:
Assay in all cases: NCI anticancer screen, dose series, 48 h
OVCAR-5 ovarian = system: OVCAR-5 ovarian
NCI/ADR-RES ovarian = system: NCI/ADR-RES ovarian
UACC-62 melanoma = system: UACC-62 melanoma
K-562 leukemia = system: K-562 leukemia
NCI-H522 lung = system: NCI-H522 lung
HT29 colon = system: HT29 colon
MOLT-4 leukemia = system: MOLT-4 leukemia
OVCAR-3 ovarian = system: OVCAR-3 ovarian
MCF7 breast = system: MCF7 breast
SN12C renal = system: SN12C renal

| Structure (SMILES) | TGI (OVCAR-5 ovarian) | TGI (NCI/ADR-RES ovarian) | TGI (UACC-62 melanoma) | TGI (K-562 leukemia) | TGI (NCI-H522 lung) | TGI (HT29 colon) | TGI (MOLT-4 leukemia) | TGI (OVCAR-3 ovarian) [µM] | TGI (MCF7 breast) | TGI (SN12C renal) | GI50 (OVCAR-5 ovarian) | GI50 (NCI/ADR-RES ovarian) [µM] | GI50 (UACC-62 melanoma) | GI50 (K-562 leukemia) | GI50 (NCI-H522 lung) | GI50 (MOLT-4 leukemia) | GI50 (OVCAR-3 ovarian) [µM] | GI50 (MCF7 breast) | GI50 (SN12C renal) | GI50 (HT29 colon) |
| --- | --- | --- | --- | --- | --- | --- | --- | --- | --- | --- | --- | --- | --- | --- | --- | --- | --- | --- | --- | --- |
| OCCNC1c2cc(Cl)ccc2-c2c(Cl)cc(Cl)cc21 (stereo not drawn) | > 100 µM | > 100 µM | > 100 µM | > 100 µM | > 100 µM | > 100 µM | 47.6 µM | 80 | 53.8 µM | 86.3 µM | – | – | – | – | – | – | – | – | – | – |
| CCC1(O)C(=O)OCc2c1cc1n(c2=O)Cc2cc3c(NC(=O)CN)cccc3nc2-1 (stereo not drawn) | 63.9 µM | 1.51 µM | 0.852 µM | > 100 µM | 9.9 µM | > 79.3 µM | 1.13 µM | 22.3 | > 43.2 µM | 10.1 µM | 3.27 µM | 0.296 | 0.0927 µM | 1.07 µM | 0.387 µM | 0.0438 µM | 3.3 | 0.181 µM | 0.102 µM | – |
| COC1C(N)C(OC2C(Oc3cccc4c(O)c5c(=O)oc6ccc(C)c7c(=O)oc(c34)c5c67)OC(C)C(O)C2(C)O)OC(C)C1O (stereo not drawn) | 1.45 µM | 12.1 µM | 0.147 µM | 1.56 µM | 0.181 µM | 0.436 µM | 1.96 µM | 0.406 | 1.31 µM | 0.547 µM | – | – | – | – | – | – | – | – | – | – |
| Nc1nc(Nc2ccccc2SSc2ccccc2Nc2nc(N)nc(C(Cl)(Cl)Cl)n2)nc(C(Cl)(Cl)Cl)n1 | 18.7 µM | 16.6 µM | 11.4 µM | 17.7 µM | 10.3 µM | 79.7 µM | 18.1 µM | 33.8 | 33 µM | 7.26 µM | 4.75 µM | 3.68 | 2.94 µM | 3.93 µM | 2.6 µM | 3.22 µM | 10.4 | 6.46 µM | 2.46 µM | 22.3 µM |
| COC1C(O)C(CO)OC(OC2C(O)COC(OC3C(C)OC(OC4C(O[C@H]5CC[C@@]6(C)C(CC=C7[C@H]6CCC68C(=O)O[C@@](C)(CCCC(C)C)[C@H]6[C@@H](OC(C)=O)C[C@@]78C)C5(C)C)OCC(OS(=O)(=O)O)C4O)C(OC4OCC(O)C(O)C4O)C3O)C2O)C1O (stereo partly drawn) | 0.564 µM | 0.63 µM | 0.353 µM | 0.242 µM | 0.497 µM | 0.221 µM | 0.368 µM | – | 0.431 µM | 0.3 µM | 0.241 µM | 0.207 | 0.175 µM | 0.0923 µM | 0.194 µM | 0.153 µM | 0.181 | 0.166 µM | 0.11 µM | 0.0795 µM |
| COc1cc2nc(-c3cc(F)ccc3O)nc(N[C@@H]3CNC[C@H]3C(C)(C)O)c2cc1OC | 3.67 µM | 6.09 µM | 3.41 µM | 3.94 µM | 3.11 µM | 3.85 µM | 4.7 µM | 3.62 | 3.07 µM | 3.12 µM | 1.5 µM | 2.31 | 1.78 µM | 1.6 µM | 1.67 µM | 2.09 µM | 1.9 | 1.51 µM | 1.42 µM | 2 µM |
| Oc1cccc2ccc(N/N=C/c3cc(CN4CCOCC4)c(O)c4ncccc34)nc12 | 15.4 µM | 1.63 µM | 0.55 µM | 6.03 µM | 1.48 µM | 5.92 µM | 5.62 µM | 2.09 | 1.54 µM | 7.82 µM | 0.135 µM | 0.0233 | 0.0339 µM | 0.0152 µM | < 0.0165 µM | 0.053 µM | 0.0392 | 0.021 µM | 0.0348 µM | 0.324 µM |
| Cc1cccc2c3c(sc12)C(c1ccc(Cl)cc1)C(C#N)=C(N)O3 (stereo not drawn) | 11.5 µM | 2.46 µM | 11.3 µM | 14.2 µM | 4.95 µM | 6.12 µM | 13.7 µM | 3.16 | 4.64 µM | 11.2 µM | 0.541 µM | 0.302 | 0.327 µM | 0.285 µM | 0.314 µM | 0.497 µM | 0.384 | 0.257 µM | 0.544 µM | 0.394 µM |
| O=C(CCCCCCN1CC(=O)N2[C@@H](c3ccc(Cl)c(Cl)c3)c3[nH]c4ccccc4c3C[C@H]2C1=O)NO | 13.4 µM | > 33.3 µM | 7.07 µM | 21.4 µM | 10.5 µM | 9 µM | 17.3 µM | 6.57 | 15 µM | 14.5 µM | 3.86 µM | > 33.3 | 1.66 µM | 1.54 µM | 3.21 µM | 1.12 µM | 1.62 | 1.87 µM | 4.33 µM | 2.93 µM |
| COc1cc(/C=C/C(=O)c2cccc(-n3cc(-c4ccc(Cl)cc4)[nH]c3=O)c2)cc(OC)c1OC | 10.2 µM | 7.3 µM | 21.4 µM | > 100 µM | 21.9 µM | 3.71 µM | > 100 µM | 6.02 | 5.75 µM | 28.5 µM | 3.11 µM | 2.36 | 8.88 µM | 3.69 µM | 4.1 µM | 5.24 µM | 2.48 | 1.74 µM | 5.14 µM | 2 µM |
| CC(=O)NCc1cccc(C#Cc2cncnc2Nc2ccc(OCc3cccc(F)c3)c(Cl)c2)c1 | > 25 µM | > 25 µM | > 25 µM | > 25 µM | > 22.4 µM | > 25 µM | > 25 µM | > 25 | > 25 µM | > 25 µM | 9.13 µM | 7.76 | 9.87 µM | 10.1 µM | 6.55 µM | 7.42 µM | 11.6 | 9.18 µM | 10.6 µM | 9.19 µM |
| O=C1OC(C(O)CO)C(O)=C1O (stereo not drawn) | 3400 µM and 3310 µM | 5930 µM and > 6010 µM | 3050 µM and > 5130 µM | 1460 µM and 1210 µM | 3380 µM and > 3070 µM | 4070 µM and 3750 µM | 5040 µM and > 4890 µM | 2900 | 502 µM and 1100 µM | 2810 µM and 3070 µM | 1790 µM and 1730 µM | 2450 | 1670 µM and 2050 µM | 378 µM and 337 µM | 1590 µM and 293 µM | 2130 µM and 1550 µM | 1560 | 233 µM and 489 µM | 1460 µM and 1540 µM | 2000 µM and 1870 µM |
| OC(C#Cc1ccccc1)(c1ccccc1)c1ccccc1 | > 100 µM | > 100 µM | > 100 µM | > 100 µM | > 100 µM | 78.4 µM | > 100 µM | 85.3 | 45.7 µM | > 100 µM | – | – | – | – | – | – | – | – | – | – |
| O=C1c2sccc2-c2cccc3cccc1c23 (tested in a mixture with another compound) | 25.5 µM | 47.2 µM | 22.6 µM | 25.8 µM | 57.1 µM | 15.2 µM | 5.2 µM | 67.8 | > 100 µM | 89.4 µM | – | – | – | – | – | – | – | – | – | – |
| COC1=C(OC)C(=O)C(SC/C=C(\C)CCCC(C)CCCC(C)CCCC(C)C)=CC1=O (stereo not drawn) | > 89.7 µM | > 46.7 µM | > 100 µM | > 100 µM | > 38.1 µM | > 100 µM | > 100 µM | > 100 | > 26.9 µM | > 100 µM | 0.564 µM | 0.784 | 0.797 µM | 0.678 µM | 0.635 µM | 1.41 µM | 0.857 | 0.455 µM | 0.741 µM | 4.24 µM |

Reference: PubChem BioAssay (NCI)
